Data published in US20250352555A1, “METHOD OF INCREASING IMMUNE CELL ACTIVATION AND/OR TREATING CANCER USING DIBENZOXAZEPINONES” (VASCULAR THERAPEUTICS PTY LTD, priority 2022, published 2025).
“And” between values parts separate entries of the source, which are not always exact repeats. Equal entries are not always repeated.

Assays:
[1] = system: A375 cells; test: Cell morphology study, A375; format: cell-based, human; details: 1 μM, 24 h
Method: Cell morphology studies. Cells were grown in medium containing 10% FBS in 4-well chamber slides. The following day the cells were incubated in medium containing 10% FBS and vehicle, BT2 or SCH772984 at 1 μM for 24 h, then fixed with 4% paraformaldehyde solution for 15 min. After washing briefly in PBS the cells were stained with hemotoxylin and eosin. The slides were scanned using an Aperio ScanScope XT slide scanner (Leica Biosystems, Mt Waverley, Vic, Australia) and images were captured using ImageScope software (Leica Biosystems).
The morphology of A375 and MeWo cells exposed to 1 μM of BT2 or SCH772984 for 24 h was also assessed.

[2] = Serum BT2 concentration by LC-MS in B16F10 tumor-bearing mice; format: in vivo; details: mouse, intraperitoneal, Day 17, 200 mg/kg i.p., C57BL/6J mice
Method: Mass spectrometry. Proteins in serum (50 μl) were precipitated by diluting with acetone (150 μl). The mixture was left for 14 h at 4° C. and protein was pelleted by centrifugation (10 min at 14,000 g) and supernatant removed. The solution (10 μl) was diluted into 40 μl Buffer A (H2O (0.1% formic acid)) for MS analysis. BT2 standard was prepared by diluting stock suspension of BT2 ([…], 30 mg/ml) in Buffer A (990 μl) then diluting 10 μl of this in 990 μl followed by another 1 in 100 dilution. […] LC-MS was performed using a Thermo QExactive HF, Gold C18 column (50×2.1 mm) with Solvent A (H2O (0.1% formic acid) and Solvent B (H2O:CH3CN 20:80 (0.1% formic acid) with gradient T=0, 1% B, T=26 min, 100% B, T=27 min, 100%, T=27.1, 1% B, T=30 min, 1% B; column temperature 45° C. MS1 scan, m/z 140-800, 3×10^6 ions, max IT 25 msec, resolution 120,000 and Top 5 MS2 (2×10^5 ions, max IT 50 msec, resolution 30,000 and HCD 20, 30 50V). Extracted ion chromatograms (m/z 327.134±5 ppm) were obtained for blanks, standards and samples and integrated peak areas calculated and compared).
To assess the effect of BT2 in the same model, C57BL/6J mice bearing s.c. B16F10 tumors were administered with BT2 or vehicle (200 mg/kg or 20 ml/kg, respectively, i.p.) once a day on a 5 days-on/2 days-off schedule. Treatment commenced on Day 5 (FIG. 9A). […]

[3] = system: total ERK; test: Immunohistochemistry of B16F10 tumors (Day 17), total ERK; format: in vivo, mouse; details: B16F10 tumors Day 17, 200 mg/kg i.p.
Description: Immunohistochemical staining and analyses. Rabbit monoclonal anti-CD3 (cat. no. ab16669; mouse, rat and human reactive), rabbit monoclonal anti-PD-1 (cat. no. ab214421), rabbit monoclonal anti-CD68 (cat. no. ab125212) antibodies were obtained from Abcam, rabbit monoclonal anti-phospho-ERK (Thr^202/Tyr^204) (cat. no. CST4370), rabbit monoclonal total ERK (cat. no. CST4695), antibodies were obtained from Cell Signaling Technology. Rabbit polyclonal anti-PD-L1 (cat. no. PA5-20343) antibody was obtained from ThermoFisher.
Formalin fixed, paraffin embedded sections were prepared from tumors. Heat-induced epitope retrieval was applied to all deparaffinized sections (4 μm sections on Superfrost slides) with citrate buffer, pH 6.0 for 5 min at 110° C. […] Integrated optical density (IOD) or area of positive staining (red chromagen) was assessed using Image-Pro Plus software (Cybernetics, Bethesda, MD, USA). Positive staining was the average of quantitation in 4-8 fields of view under 20× or 40× objectives.
To assess the effect of BT2 in the same model, C57BL/6J mice bearing s.c. B16F10 tumors were administered with BT2 or vehicle (200 mg/kg or 20 ml/kg, respectively, i.p.) once a day on a 5 days-on/2 days-off schedule. […] Tumor size on Day 17 measured using callipers (FIG. 10A) correlated with isolated weighed tumors (FIG. 10B).

[4] = system: IFN-γ; test: Mouse serum IFN-γ levels by ELISA; format: in vivo; details: B16F10 tumor-bearing mice Day 17, 200 mg/kg i.p., vs vehicle
Method: Mouse serum IFN-γ levels. Whole blood was collected from Day 17 mice and spun at 1500 g for 10 min at 4° C. Serum was extracted from the top layer and stored at −80° C. IFN-γ levels were measured using the mouse IFN-γ (Improved) ELISA kit (Invitrogen, cat. no. KMC4021) according to the manufacturer's protocol, with absorbance being read at 450 nm. GraphPad Prism 9 software was used to generate the standard curve. IFN-γ levels in mouse serum were measured alongside the standard curve by using GraphPad Prism 9.
IFN-γ is a biomarker of cellular immunity and the antitumor immune response. Elevated IFN-γ is associated with a systemic immune response in cancer patients and tumor-bearing mice after immune checkpoint therapy. Since IFN-γ is produced by T cells, levels of IFN-γ in the sera of tumor-bearing mice treated with vehicle or BT2 were determined.

Which cell morphology [1] does the source give for CCOC(=O)Nc1ccc2c(c1)C(=O)N(CC)c1ccccc1O2 [BT2, (10-ethyl-11-oxo-10,11-dihydro-dibenzo[b,f][1,4]oxazepin-2-yl)-carbamic acid ethyl ester] here?
Its cell morphology is “loss of spindle morphology and cell rounding”.

And the concentration at 17 day [2]?
Its concentration at 17 day is 4000 ng/mL and 12.3 µM.

What about the “total ERK levels in tumors (IHC)” value [3] of the same compound?
Its value is “without affecting total ERK levels”.

What about the “circulating (serum) IFN-γ levels” value [4] of the same compound?
The value was “elevated”.
